# Results from patent EP0292365A2, “4-Amino-5,8-quinazolindione derivatives, process for their preparation and pharmaceutical compositions containing them” (CENTRE NATIONAL DE LA RECHERCHE SCIENTIFIQUE, priority 1987, dated 1988).
# Like-named read-outs stand apart in the source and are kept apart here.
# Test system: Leucémie P388
# Format: in vivo, souris DBA/2
# Settings: for survivants 30 jours / Δ P J1-J5 / T/C / Doses actives (T/C ≥ 125 %): P388; for T/C: survivants inclus; for activité antitumorale sur la leucémie P388: summary
# Excerpt: Afin de tester l'activité antitumorale des composés décrits plus haut, on a utilisé les leucémies murines P388 et L1210, ainsi que le mélanome murin B16. La leucémie P388 est considère comme très sensible et permet une première sélection. D'autre part, une substance ayant une grande activité sur la leucémie L1210 a une grande chance d'être active en clinique humaine (J.M. Venditti; Relevance of transplantable animal tumor systems to the Selection of new agents for clinical trial in pharmacological basis of cancer chemotherapy. The University of Texas ed. Williams and Wilkins, publ. 1975, Baltimore USA).
# Cette étude a été réalisée sur 1, 2 ou 3 tumeurs murines expérimentales selon le schéma suivant :
# Les produits en solution dans l'eau ou en suspension dans du Klucel sont administrés par voie intrapéritonéale 24 heures après la greffe des cellules tumorales (10 animaux par série), soit en injection unique (J1), soit pendant 9 jours consécutifs (Ji-9). Les morts sont relevés chaque jour à la même heure. La comparaison du temps médian de survie des souris témoins (C) et des souris traitées (T) permet d'apprécier l'activité antitumorale du produit. On adopte comme critère d'activité minimale la valeur de T/C supérieure ou égale à 125 % conformément aux critères établis par GERAN et par l'O.M.S. (Réf. GERAN R.I., GREENBERG N.H., MACDONALD M.M., SCHUMACHER A.M. and ABBOTT B.J. Protocols for screening chemical agents and natural products against animal tumors and other biological systems. Cancer Chemother. Rep. Part 3, 3, 1-103 (1972)).
# Lorsque le composé est actif sur plusieurs tumeurs, son administration par d'autres voies que la voie intrapéritonéale (i.p.) est envisagée : orale (p.o) et intraveineuse (i.v). Les résultats des essais effectués à l'aide du composé 63 sont rassemblés dans le tableau IV ci-après.
# Les résultats des essais effectués à l'aide des composés de l'invention n° 57 et 59 sont rassemblés dans le tableau IV Bis ci-après.
# Dans les tableaux IV et IV Bis, P représentent la variation de poids entre J1 et J5 des animaux traités; lorsque P est supérieure à environ 4 g, cela signifie que la dose à laquelle le composé a été testé est toxique.
# [1] = greffe ip(10^6cel.), ip J1-9, dose optimale 0,4 mg/kg/inj.
# [2] = greffe ip(10^6cel.), ip J1, dose 1,25 mg/kg/inj.
# [3] = greffe ip(10^6cel.), ip J1, dose optimale 3 mg/kg/inj.
# [4] = greffe ip(10^6cel.), iv J1, dose 1,25 mg/kg/inj. (2 doses testées)
# [5] = greffe ip(10^6cel.), po J1, dose optimale 30 mg/kg/inj.
# [6] = greffe iv(10^5cel.), iv J1, dose 1,25 mg/kg/inj. (1 seule dose testée)
smiles,measurement,setting,value
CN(C)CCCNc1ncnc2c1C(=O)C(N1CC1)=C(N1CC1)C2=O [composé 63],survivants 30 jours,[1],0
same,Δ P J1-J5,[1],"-2,1 g"
same,T/C,[1],222%
same,survivants 30 jours,[2],1
same,Δ P J1-J5,[2],"-1,7 g"
same,T/C,[2],174%
same,survivants 30 jours,[3],0
same,Δ P J1-J5,[3],"-2,0 g"
same,T/C,[3],188%
same,survivants 30 jours,[4],0
same,Δ P J1-J5,[4],"-0,7 g"
same,T/C,[4],136%
same,survivants 30 jours,[5],0
same,Δ P J1-J5,[5],"-4,7 g"
same,T/C,[5],140%
same,Doses actives (T/C ≥ 125 %),"greffe ip(10^6cel.), traitement ip J1","0,1-3 mg/kg/inj."
same,Doses actives (T/C ≥ 125 %),"greffe ip(10^6cel.), traitement ip J1-9","0,017-0,8 mg/kg/inj."
same,Doses actives (T/C ≥ 125 %),"greffe ip(10^6cel.), traitement po J1",20-30 mg/kg/inj.
same,survivants 30 jours,[6],0
same,Δ P J1-J5,[6],"-0,1 g"
same,T/C,[6],147%
same,activité antitumorale sur la leucémie P388,par voie orale et par voie intraveineuse,reste actif
same,activité antitumorale sur la leucémie P388,voie intrapéritonéale,excellente activité antitumorale
